The subject of series [1] is ADSCs. As to the kind of experiment: Adipogenic differentiation, lipid droplet staining (HCS LipidTox). The class given is cell-based, human. As to conditions: 5 µM; after three weeks of differentiation. As to the method: ADSCs were plated at a density of 70,000 cells/well in a 12-well plate using DMEM with 10% FBS. When the cells reached about 90% confluence, the culture medium was removed and substituted with WAT-differentiating medium containing DMEM 10% FBS, insulin (1 μM), dexamethasone (DEXA, 1 μM), IBMX (0.5 mM), and rosiglitazone ([…]). After 3 days of exposure to the differentiating medium, the cells were cultured in a maintenance medium containing only insulin (1 μM) and rosiglitazone (1 μM) for 14 days. The medium was changed every 3 days. The differentiation results were evaluated by staining the cells with HCS LipidTOX™ for neutral lipids (Thermo Fisher Scientific, Waltham, MA, USA) after 21 days. The cells were fixed using 4% paraformaldehyde (PFA, Sigma-Aldrich, SaintLouis, MO, USA) for 15 min at room temperature; then, each well was stained using HCS LipidTox and Hoechst 33342 and incubated at room temperature for 30 min. After this incubation, the cells were washed with water. Images were acquired using fluorescence microscopy (FLoid Cell Imaging Station, Life Technology, Carlsbad, CA, USA) or light microscopy (DMi1, Leica, Wetzlar, Germany) and analyzed using ImageJ software (v 1.52a).

In series [2] the test system is PPARG, FABP4, HSL, and LPL. Kind of series: Adipogenic gene expression (real-time PCR). The class given is cell-based, human. As to conditions: differentiated cells cotreated with 5 µM. Here is the method:
After treatment, RNA was extracted using the phenol/chloroform method (RNAzol, Sigma-Aldrich, Saint Louis, MO, USA) followed by isopropanol precipitation, according to the manufacturer’s instructions. The precipitated RNA was then washed with 75% ice-cold ethanol and resuspended in water. The RNA concentration was measured using NanoDrop 2000. cDNA was synthesized via reverse transcription using recombinant Moloney murine leukemia virus reverse transcriptase (MultiScribe Reverse Transcriptase, Bio-Rad, Hercules, CA, USA) and the iScript cDNA Synthesis Kit (Bio-Rad, Hercules, CA, USA). Gene expression was analyzed using real-time PCR using the SsoAdvanced Universal SYBR Green Supermix Kit (Bio-Rad, Hercules, CA, USA). Relative quantification was calculated using the ΔΔCt method.

The subject of another series is INSRβ signaling in ADSCs. Kind of series: Insulin signaling Western blot / INSRβ immunoprecipitation. It is filed as cell-based, human. As to conditions: 5 μM, 16 h. Here is the method:
(§1) After treatments, whole-cell lysates were prepared using RIPA lysis buffer supplemented with protease inhibitors (AEBSF, aprotinin, bestatin, E-64, EDTA, leupeptin, Sigma-Aldrich, Saint Louis, MO, USA) and orthovanadate (Sigma-Aldrich, Saint Louis, MO, USA). The proteins in the lysates were collected and quantified using the Pierce BCA protein assay kit (Thermo Fisher Scientific, Waltham, MA, USA). Subsequently, the proteins were denatured by heating at 95 °C for 5 min in the presence of 2% Sodium Dodecyl Sulfate (SDS, Sigma-Aldrich, Saint Louis, MO, USA), 150 mM dithiothreitol (DTT, Sigma-Aldrich, Saint Louis, MO, USA), and 0.01% bromophenol blue (Sigma-Aldrich, Saint Louis, MO, USA). The samples were then analyzed using SDS-PAGE (SDS-Polyacrylamide Gel Electrophoresis) and Western blotting (WB).
Following treatment, the cells were stimulated with insulin at 50 ng/mL for 15 min. For the immunoprecipitation of the insulin receptor beta subunit (INSRβ), cell lysates were prepared using RIPA lysis buffer with protease inhibitors, as described previously. The lysates were then incubated for 1 h with magnetic beads (Dynabeads Protein G, Thermo Fisher Scientific, Waltham, MA, USA) that had been previously bound to anti-INSRβ antibody, following the manufacturer’s instructions. After incubation, the beads were washed three times with RIPA buffer to remove non-specifically bound proteins. The immunoprecipitated proteins bound to the beads were then eluted by boiling the beads at 95 °C for 5 min in the presence of 2% SDS, 150 mM DTT, and 0.01% bromophenol blue. The eluted proteins were analyzed using SDS-PAGE and, subsequently, using WB.
A general note: A western blot detects proteins with antibodies after separation by electrophoresis.

The test system of series [3] is ADSCs. Kind of series: Transferrin uptake (clathrin-dependent endocytosis). It is filed as cell-based, human. As to conditions: 16 h treatment; transferrin 5 min. As to the method:
(§2) For INSRβ endocytosis experiments, the cells were stimulated with 50 ng/mL insulin for 15 min. For transferrin endocytosis experiments, the cells were incubated with 25 μg/mL Transferrin Texas Red for 5 min. After treatment, the cells were washed with PBS and fixed with 4% PFA for 10 min at room temperature, followed by an additional PBS wash. The cells were then permeabilized by incubating them with cold HEPES-Triton X-100 buffer for 5 min at 4 °C. After permeabilization, the cells were incubated with primary antibodies for 30 min, followed by incubation with Alexa Fluor 488- or 546-conjugated secondary antibodies (Invitrogen, Waltham, MA, USA) and phalloidin, labeled with either Alexa Fluor 546 or 633 (Invitrogen Waltham, MA, USA) for 30 min. After incubation, coverslips were mounted on glass slides using a mounting medium. Images were acquired using a confocal microscope (Leica TCS SP8, Wetzlar, Germany) and analyzed using ImageJ (v 1.52a) software in order to quantify and analyze the fluorescence signals.

For a further series, the system named is LC3B. Kind of series: Autophagy induction (LC3B Western blot, LAMP1/LC3B colocalization). The class given is cell-based, human. As to conditions: 16 h treatment. Here is the method:
as §1, §2

The test system of series [4] is ADSCs. The following applies: 7 days; 1 to 50 μM.

The values that follow come from publication PMC11674800, “Second-Generation Antipsychotics Induce Metabolic Disruption in Adipose Tissue-Derived Mesenchymal Stem Cells Through an aPKC-Dependent Pathway” (Cells, 2024).

With `Cc1cc2c(s1)Nc1ccccc1N=C2N1CCN(C)CC1` [olanzapine], in the series with ADSCs [1], the “quantity and average size of lipid droplets” value was “notably decreased”; the “reduction in lipid accumulation” value is given as “approximately 30%”. In series [2], the “expression of genes related to adipogenesis (PPARG, FABP4, HSL, LPL)” value is given as “significantly reduced expression”. Moreover, the “phosphorylated INSRβ serine residues” value in the series with INSRβ signaling in ADSCs (basal and after insulin stimulation) is on record as “increased levels”. Besides, in the series with INSRβ signaling in ADSCs (insulin 50 ng/mL), the “INSRβ tyrosine phosphorylation (P-INSRβ Y1146)” value was “reduction”; the “P-AKT T308, P-AKT S473, and P-ERK T202/Y204” value is “decrease”. The short-term transferrin endocytosis result in the series with ADSCs [3] is “significant reduction”. In the series on LC3B, the “colocalization of LAMP1 with LC3B” value is recorded as “not observed” and the “conversion of LC3B-I to LC3B-II” value is “not after olanzapine”. Besides, the “effects on cell viability” value in the series with ADSCs [4] is given as “negligible effects”.
